What was measured:
[1] = system: static and dynamic allodynia in rats (paw incision model); experiment: Paw incision model for surgical pain, post-surgery administration; type: in vivo, rat
From the text: (§1) Basically, in this animal model, an incision is made in the hind paw of the rats, which induces a reproducible and quantifiable mechanical hyperalgesia in the rats lasting several days. Rats are anesthetized, and the plantar surface of the right hind paw of each rat is incised through the skin and fascia. The wound is then closed, for example with sutures, and allowed to heal. The rats are placed into wire mesh bottom cages, allowing access to the underside of their paws. After habituation, tactile allodynia (or “static allodynia”) can be evaluated by touching the right hind paw plantar surface with von Frey hairs in ascending order of force (measured in grams) until a paw-withdrawal response (paw withdrawal threshold or “PWT”) is elicited. Dynamic allodynia can be evaluated by stoking the plantar surface of the right hind paw and measuring (in seconds) the amount of time it takes for a rat to withdraw its paw (paw withdrawal latency or “PWL”).
CP-101,606 was also tested post-surgically using the paw incision model, basically as described above. However, in this assay, rats are administered CP-101,606 (3, 10, or 30 mg/kg, s.c.), pregabalin (30 mg/kg, s.c.), or vehicle (s.c.) post-incision. A baseline is measured before incision and after incision, prior to drug. […] CP-101,606 produced a full reversal of static allodynia and a partial (approximately 40%) reversal of the dynamic subtype.

[2] = system: static and dynamic allodynia in rats (paw incision model); experiment: Paw incision model for surgical pain, pre-surgery administration; type: in vivo, rat; settings: for PWL (paw withdrawal latency) compared to vehicle / PWT (paw withdrawal threshold) compared to vehicle: 72 hours, pre-surgical 10 and 30 mg/kg CP-101,606, pregabalin 30 mg/kg s.c.
From the text: as §1
In the pre-surgery administration assay, a PWT and PWL baseline is measured prior to drug administration and incision. The rats are then given drug (CP-101,606, at separate doses of 3, 10 or 30 mg/kg s.c.) or are given pregabalin (30 mg/kg s.c., as a positive control)), or vehicle (s.c.). The right hind paw each rat is then incised as described above. Measurements are then taken periodically, as described above.

[3] = target: NMDA receptors comprised of NR1/NR2B subunits (Homo sapiens, UniProt Q05586+Q13224); settings: selectivity between NMDA receptor subtypes; cited from earlier work
Sequence of NMDA receptors comprised of NR1/NR2B subunits (Q13224 27-1484, other chains not shown): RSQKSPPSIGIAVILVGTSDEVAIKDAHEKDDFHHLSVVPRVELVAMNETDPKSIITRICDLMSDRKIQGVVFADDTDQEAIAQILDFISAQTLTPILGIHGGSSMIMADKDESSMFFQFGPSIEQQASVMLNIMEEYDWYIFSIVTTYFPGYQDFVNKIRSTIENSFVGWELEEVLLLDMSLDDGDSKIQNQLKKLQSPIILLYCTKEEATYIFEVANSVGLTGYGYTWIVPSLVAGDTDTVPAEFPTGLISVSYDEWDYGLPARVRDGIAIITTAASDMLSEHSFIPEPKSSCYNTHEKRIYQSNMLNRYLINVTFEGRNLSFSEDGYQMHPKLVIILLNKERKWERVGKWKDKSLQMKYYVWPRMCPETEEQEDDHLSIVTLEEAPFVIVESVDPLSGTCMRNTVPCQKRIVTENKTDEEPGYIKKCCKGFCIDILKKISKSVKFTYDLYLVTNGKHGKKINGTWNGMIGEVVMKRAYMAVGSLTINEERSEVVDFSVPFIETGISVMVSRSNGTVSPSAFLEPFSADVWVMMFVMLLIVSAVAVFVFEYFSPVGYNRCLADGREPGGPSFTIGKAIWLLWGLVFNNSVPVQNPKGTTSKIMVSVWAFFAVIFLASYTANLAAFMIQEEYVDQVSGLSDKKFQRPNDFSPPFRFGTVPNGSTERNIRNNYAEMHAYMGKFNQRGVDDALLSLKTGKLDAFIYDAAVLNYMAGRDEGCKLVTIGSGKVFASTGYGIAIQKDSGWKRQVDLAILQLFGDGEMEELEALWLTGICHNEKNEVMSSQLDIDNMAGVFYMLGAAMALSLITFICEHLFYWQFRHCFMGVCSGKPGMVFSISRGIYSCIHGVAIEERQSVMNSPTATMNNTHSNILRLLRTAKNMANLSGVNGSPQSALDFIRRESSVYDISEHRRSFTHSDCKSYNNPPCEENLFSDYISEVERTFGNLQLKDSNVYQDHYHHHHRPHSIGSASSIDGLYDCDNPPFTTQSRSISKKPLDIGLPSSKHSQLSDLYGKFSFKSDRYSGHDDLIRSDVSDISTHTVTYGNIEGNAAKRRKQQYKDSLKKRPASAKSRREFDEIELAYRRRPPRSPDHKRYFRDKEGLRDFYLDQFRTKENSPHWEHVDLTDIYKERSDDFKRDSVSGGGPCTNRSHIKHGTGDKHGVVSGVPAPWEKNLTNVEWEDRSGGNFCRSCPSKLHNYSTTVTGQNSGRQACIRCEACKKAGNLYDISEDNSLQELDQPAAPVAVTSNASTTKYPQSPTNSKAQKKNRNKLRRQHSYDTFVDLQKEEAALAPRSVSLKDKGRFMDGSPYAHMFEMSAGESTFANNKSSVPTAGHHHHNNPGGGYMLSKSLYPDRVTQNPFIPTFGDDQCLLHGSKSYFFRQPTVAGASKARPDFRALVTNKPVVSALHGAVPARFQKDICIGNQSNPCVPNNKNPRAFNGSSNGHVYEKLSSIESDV

[4] = system: animal models of pain perception; settings: literature (Bernardi 1996; Taniguchi 1997); cited from earlier work
[5] = post-incision administration, 30 mg/kg s.c.
[6] = post-incision administration, s.c.
[7] = pre-surgery administration, 30 mg/kg s.c.
[8] = pre-surgery administration, s.c.

Structure (SMILES): Oc1ccc2c(c1)OC[C@@H](N1CCC(O)(c3ccc(F)cc3)CC1)[C@H]2O (relative stereo)
- melting point: 159 to 160 °C

Structure (SMILES): C[C@@H]([C@@H](O)c1ccc(O)cc1)N1CCC(O)(c2ccccc2)CC1 [CP-101,606, (+)-(1S, 2S)-1-(4-hydroxy-phenyl)-2-(4-hydroxy-4-phenylpiperidino)-1-propanol]
- duration of effect, dynamic allodynia [1, 5]: two
- duration of effect, static allodynia [1, 5]: three
- time of peak effect, dynamic allodynia [1, 5]: two
- effect on static and dynamic subtypes of allodynia ([1]; post-incision administration, 3, 10 or 30 mg/kg s.c., rats): dose-dependently diminished both static and dynamic subtypes of allodynia
- MED, dynamic allodynia [1, 6]: 30 mg/kg
- MED, static allodynia [1, 6]: 10 mg/kg
- reversal of static allodynia [1, 6]: full reversal
- reversal of dynamic allodynia ([1]; post-incision administration, s.c., partial reversal): approximately 40%
- PWL (paw withdrawal latency) compared to vehicle [2]: longer
- PWT (paw withdrawal threshold) compared to vehicle [2]: higher
- duration of antiallodynic action ([2]; following pre-surgical administration): at least 48 hours
- latest time at which a preventive effect was seen ([2]; post surgery, pre-surgical administration): 72 h
- time of peak effect, dynamic allodynia [2, 7]: two
- time of peak effect, static allodynia [2, 7]: two
- effect on static and dynamic subtypes of allodynia ([2]; pre-surgery administration, 3, 10 or 30 mg/kg s.c., rats): dose-dependently blocked both static and dynamic subtypes of allodynia
- blockade of dynamic allodynia [2, 8]: near full blockade
- blockade of static allodynia [2, 8]: full blockade
- MED (minimum effective dosage), dynamic allodynia ([2]; pre-surgery administration, s.c., PWL): 10 mg/kg
- MED (minimum effective dosage), static allodynia ([2]; pre-surgery administration, s.c., PWT (von Frey hairs)): 10 mg/kg

Structure (SMILES): CC(C(O)c1ccc(O)cc1)N1CCC(Cc2ccccc2)CC1 (stereo not drawn) [Ifenprodil, ifenprodil]
- blockade of ion current, NR1/NR2B compared to NR1/NR2A, NR2C, or NR2D subunits [3]: more potent and efficacious
- analgesic activity [4]: significant analgesic activity

Structure (SMILES): CC(C)C[C@H](CN)CC(=O)O [pregabalin, reference compound]
- PWL (paw withdrawal latency) compared to vehicle [2]: longer
- PWT (paw withdrawal threshold) compared to vehicle [2]: higher

From patent publication US20020072485A1, “Prophylactic use of N-methyl-D-aspartate (NMDA) antagonists” (priority 2000, published 2002)
